Target: recombinant human SSTR3 (Homo sapiens, UniProt P32745)
Assay: [125I]SST14 radioligand binding competition, filtration-based
Description: This was accomplished using filtration-based assays against the radiolabeled peptide ^[125I]SST14. The reference compound used was the peptide SST28.
SiFALP was also used to cyclize octreotide in a model reaction (Scheme 6).

Sequence of recombinant human SSTR3 (P32745 whole entry): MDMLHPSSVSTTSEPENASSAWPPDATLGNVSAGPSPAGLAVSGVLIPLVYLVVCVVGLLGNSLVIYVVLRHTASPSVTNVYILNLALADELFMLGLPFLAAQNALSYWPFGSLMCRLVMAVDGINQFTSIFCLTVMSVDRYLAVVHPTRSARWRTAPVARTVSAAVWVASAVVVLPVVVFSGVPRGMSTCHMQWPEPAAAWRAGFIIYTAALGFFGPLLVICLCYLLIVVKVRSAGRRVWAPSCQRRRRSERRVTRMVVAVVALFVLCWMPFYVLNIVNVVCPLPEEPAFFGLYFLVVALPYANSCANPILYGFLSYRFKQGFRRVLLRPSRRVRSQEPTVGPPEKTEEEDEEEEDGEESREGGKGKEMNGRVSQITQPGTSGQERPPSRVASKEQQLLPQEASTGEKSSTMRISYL

Work on `C[C@@H](O)[C@@H]1NC(=O)[C@H](CCCCN)NC(=O)[C@@H](Cc2c[nH]c3ccccc23)NC(=O)[C@H](Cc2ccccc2)NC(=O)[C@@H](NC(=O)[C@H](N)Cc2ccccc2)CSC2=C(SC[C@@H](C(=O)N[C@H](CO)[C@@H](C)O)NC1=O)C(=O)N(Cc1cn(Cc3ccc([Si](F)(C(C)(C)C)C(C)(C)C)cc3)nn1)C2=O` [Octreo-SiFA] yielded an IC50 of 211 nM.
